Data from patent US6353003B1, “Method for reducing levels of homocysteine and C-reactive protein” (Eli Lilly and Company, priority 1998, dated 2002).

Tests used:
homocysteine = experiment: Clinical investigation: homocysteine levels after six months versus baseline; assay type: in vivo, human; conditions: postmenopausal women, six months vs patient's baseline, p<0.05
Description: (§1) A clinical investigation was conducted which included 390 women (45-72 years old), who were an average of ten years postmenopausal. These patients were randomly assigned to the following treatment protocol: raloxifene hydrochloride at 60 mg per day via oral administration (cf. Formulation 2, supra), raloxifene at 120 mg per day, or HRT therapy. Homocysteine and C-reactive protein baseline levels were determined, prior to the initiation of therapy. Methods for such determinations are well known and can be found in the references cited, supra. The study was conducted for a period of six months. The levels of homocysteine and C-reactive protein in each patient were compared at the end of six months with that patient's baseline. Results were analyzed by variance. Raloxifene at 60 mg per day lowered levels of homocysteine by 8% (p<0.05) and C-reactive protein by 4% (NS). Raloxifene at 120 mg per day lowered homocysteine by 5.7% (p<0.05) and C-reactive protien by −3.9 (NS).

C-reactive protein = experiment: Clinical investigation: C-reactive protein levels after six months versus baseline; assay type: in vivo, human; parameters: lowered C-reactive protein: unit not given here; conditions: postmenopausal women, six months vs patient's baseline, NS
Description: as §1

SMILES: Cl.O=C(c1ccc(OCCN2CCCCC2)cc1)c1c(-c2ccc(O)cc2)sc2cc(O)ccc12 [Raloxifene, [2-(4-hydroxyphenyl)-6-hydroxybenzo [b]thien-3-yl][4-[2-(1-piperidinyl)ethoxy]phenyl]methanone hydrochloride]
- lowered levels of homocysteine (homocysteine; 60 mg per day oral): 8%
- lowered homocysteine (homocysteine; 120 mg per day): 5.7%
- lowered levels of C-reactive protein (C-reactive protein; 60 mg per day oral): 4%
- lowered C-reactive protein (C-reactive protein; 120 mg per day): −3.9
